Test results as given in paper PMC2994747, “Molecular Characterization of c-Abl/c-Src Kinase Inhibitors Targeted against Murine Tumour Progenitor Cells that Express Stem Cell Markers” (PLoS ONE, 2010).

Assays:
c-Abl = target: T1, c-Abl (Homo sapiens, UniProt P00519); assay: Abl filter-binding kinase assay (Abtide, [γ-32P]ATP); format: biochemical; conditions: isolated Abl; calculated from ID50, ATP-competitive; E0 0.005, S0 0.012 µM
T1 construct: His tag; purchased Upstate (Lake Placid, NY, USA)
T1 sequence (P00519 whole entry): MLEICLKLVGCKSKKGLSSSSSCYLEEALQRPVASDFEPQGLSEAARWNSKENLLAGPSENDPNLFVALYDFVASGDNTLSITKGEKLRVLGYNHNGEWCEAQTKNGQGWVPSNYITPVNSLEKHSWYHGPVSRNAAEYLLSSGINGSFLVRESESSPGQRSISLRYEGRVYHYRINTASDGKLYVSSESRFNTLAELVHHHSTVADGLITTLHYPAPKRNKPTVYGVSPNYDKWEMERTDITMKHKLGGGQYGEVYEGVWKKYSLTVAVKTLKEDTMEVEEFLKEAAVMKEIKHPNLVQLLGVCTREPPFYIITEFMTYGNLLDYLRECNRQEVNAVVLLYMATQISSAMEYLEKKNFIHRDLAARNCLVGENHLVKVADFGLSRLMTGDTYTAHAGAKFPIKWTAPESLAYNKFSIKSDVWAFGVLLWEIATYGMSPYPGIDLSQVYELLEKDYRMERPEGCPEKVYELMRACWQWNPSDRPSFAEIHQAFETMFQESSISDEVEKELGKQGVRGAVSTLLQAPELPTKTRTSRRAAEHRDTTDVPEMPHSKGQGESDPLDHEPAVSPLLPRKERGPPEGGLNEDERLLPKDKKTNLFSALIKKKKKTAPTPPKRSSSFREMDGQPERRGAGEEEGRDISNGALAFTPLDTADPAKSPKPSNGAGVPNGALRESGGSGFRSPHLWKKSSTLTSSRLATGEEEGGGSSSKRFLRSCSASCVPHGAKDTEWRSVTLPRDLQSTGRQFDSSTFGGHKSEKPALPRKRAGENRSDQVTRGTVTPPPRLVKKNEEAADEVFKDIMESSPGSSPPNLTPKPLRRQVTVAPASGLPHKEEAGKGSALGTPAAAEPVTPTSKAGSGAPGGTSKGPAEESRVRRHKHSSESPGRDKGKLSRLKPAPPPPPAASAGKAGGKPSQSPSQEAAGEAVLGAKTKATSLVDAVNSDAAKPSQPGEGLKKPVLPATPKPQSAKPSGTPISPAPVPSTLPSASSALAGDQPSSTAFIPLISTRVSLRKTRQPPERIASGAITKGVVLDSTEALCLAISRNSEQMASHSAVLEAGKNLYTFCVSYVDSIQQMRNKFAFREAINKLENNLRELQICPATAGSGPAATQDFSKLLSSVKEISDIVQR
Protocol: (§1) Baculovirus-produced recombinant purified his-tagged active against human Src and Abl were purchased from Upstate (Lake Placid, NY, USA).
(§2) Src activity was measured in a filter-binding assay using the Src Assay Kit (Upstate, Lake Placid, NY, USA), according to the manufacturer's protocol, using the specific Src peptide substrate [[…]] in the presence of 0.125 pmol of Src and 0.160 pmol of [γ-^32P]ATP. Abl activity was measured in a filter-binding assay using an Abl specific peptide substrate (Abtide, Upstate). Reaction conditions were (in a final volume of 10 µl): 25 mM Tris-HCl pH 7.5, 1 mM DTT, 0.012 µM [γ-^32P]ATP, 0.022 µM c-Abl. Reactions were incubated 10 min at 30°C.The samples (9 µl) were spotted on paper cellulose filters which were washed according to the manufacturer's protocol. Filter-bound radioactivity was measured by liquid scintillation with a Microbeta-Trilux apparatus (PerkinElmer, Waltham, MA, USA).
(§3) The ID50 were converted to Ki according to a competitive mechanism with respect to the substrate ATP. […] Since (i) the ATP concentration was limiting, i.e., [ATP], Km(ATP), and (ii) the enzyme concentration was not negligible with respect to the ATP concentration, the classical Cheng-Prusoff relationship was not applicable. Consequently, Ki values were calculated according to [drawing 3] (2) where S0 is the concentration of the competing substrate (ATP) and E0 is the concentration of the enzyme. Each experiment was done in triplicate and mean values were used for the interpolation. Curve fitting was performed with the program GraphPad Prism.

c-Src = target: T2, c-Src (Homo sapiens, UniProt P12931); assay: Src filter-binding kinase assay (Src Assay Kit); format: biochemical; conditions: isolated Src; calculated from ID50, ATP-competitive; E0 0.005, S0 0.012 µM
T2 construct: His tag; purchased Upstate (Lake Placid, NY, USA)
T2 sequence (P12931 whole entry): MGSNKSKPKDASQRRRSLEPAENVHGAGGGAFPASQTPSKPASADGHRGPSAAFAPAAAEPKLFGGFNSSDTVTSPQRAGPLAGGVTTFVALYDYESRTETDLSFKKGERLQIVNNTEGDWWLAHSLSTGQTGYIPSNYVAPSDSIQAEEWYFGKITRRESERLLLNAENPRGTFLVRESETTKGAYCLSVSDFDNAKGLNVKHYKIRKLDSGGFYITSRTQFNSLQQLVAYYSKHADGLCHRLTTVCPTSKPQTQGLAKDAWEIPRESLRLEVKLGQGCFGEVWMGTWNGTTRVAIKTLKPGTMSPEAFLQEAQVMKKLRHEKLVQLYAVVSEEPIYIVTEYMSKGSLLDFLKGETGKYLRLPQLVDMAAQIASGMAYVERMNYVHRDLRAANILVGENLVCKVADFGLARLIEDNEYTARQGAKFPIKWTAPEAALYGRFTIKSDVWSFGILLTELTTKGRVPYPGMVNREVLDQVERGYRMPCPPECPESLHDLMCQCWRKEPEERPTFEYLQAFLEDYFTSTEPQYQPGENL
Protocol: as §1, §2, §3

A2C12 = assay: Whole genome expression analysis (Affymetrix microarray); format: cell-based, mouse
Protocol: (§4) The cells were harvested and RNA was isolated using RNeasy Mini Kit (Qiagen, Hilden, Germany) according to the instructions of the manufacturer. The isolated RNA (250 ng) was processed further using standard protocols as described recently with the exception of the 3′ IVT Express Kit (Affymetrix, High Wycombe, UK) that was utilized according to instructions. Quality control of cRNA was done with the Agilent 2100 Bioanalyzer (Agilent Tech according to manufacturer's protocols. Following fragmentation, cRNA of each sample was hybridized to Affymetrix GeneChip® Mouse Genome 430 2.0 or Human Genome U133 Plus 2.0 and scanned with an Affymetrix 3000 7G scanner.
(§5) The resultant data was normalized by Probe Logarithmic Intensity Error Estimation (PLIER) algorithm. Statistical analysis was carried out with the ArrayTrack software (National Center for Toxicological Research/FDA, Jefferson, AR, USA) using SAM algorithm.

GammaA3 = assay: as above; format: cell-based, mouse
Protocol: as §4, §5

[1] = IC50 concentration, 96 h, SAM FDR<0.01, FC>2

For `Fc1ccccc1CNc1ncnc2c1cnn2CC(Cl)c1ccc(Br)cc1` (stereo not shown) [Si162], the Ki (c-Abl) was 444 nM, the Ki (c-Src) was 42 nM and the “Actg2 (actin, gamma 2, smooth muscle, enteric) regulated gene, Si162 vs Ktr FC” value (A2C12) was -4.94. For the same compound, the “Ccl5 (chemokine (C-C motif) ligand 5) regulated gene, Si162 vs Ktr FC” value (A2C12) was 2.52, the “Ccna2 (cyclin A2) regulated gene, Si162 vs Ktr FC” value (A2C12) was -4.48 and the “Ccnb2 (cyclin B2) regulated gene, Si162 vs Ktr FC” value (A2C12) was -4.51. The “Cenpa (centromere protein A) regulated gene, Si162 vs Ktr FC” value (A2C12) was -4.34, the “Ctsb (cathepsin B) regulated gene, Si162 vs Ktr FC” value (A2C12) was 1.13 and the “Cxcl12 (chemokine (C-X-C motif) ligand 12) regulated gene, Si162 vs Ktr FC” value (A2C12) was -1.05. The “Errfi1 (ERBB receptor feedback inhibitor 1) regulated gene, Si162 vs Ktr FC” value (A2C12) was -4.38, the “Gadd45a (growth arrest and DNA-damage-inducible, alpha) regulated gene, Si162 vs Ktr FC” value (A2C12) was 1.40 and the “Itga5 (integrin, alpha 5 (fibronectin receptor, alpha polypeptide)) regulated gene, Si162 vs Ktr FC” value (A2C12) was -4.81. For the same compound, the “Mdm2 (Mdm2 p53 binding protein homolog (mouse)) regulated gene, Si162 vs Ktr FC” value (A2C12) was 1.88, the “Mmp3 (matrix metallopeptidase 3 (stromelysin 1, progelatinase)) regulated gene, Si162 vs Ktr FC” value (A2C12) was 3.28 and the “Mmp13 (matrix metallopeptidase 13 (collagenase 3)) regulated gene, Si162 vs Ktr FC” value (A2C12) was 3.90. The “Nfib (nuclear factor I/B) regulated gene, Si162 vs Ktr FC” value (A2C12) was -4.56, the “Ogn (osteoglycin) regulated gene, Si162 vs Ktr FC” value (A2C12) was -5.77 and the “Pdgfrb (platelet-derived growth factor receptor, beta polypeptide) regulated gene, Si162 vs Ktr FC” value (A2C12) was -4.68. The “Plk1 (polo-like kinase 1 (Drosophila)) regulated gene, Si162 vs Ktr FC” value (A2C12) was -4.48, the “Ptn (pleiotrophin) regulated gene, Si162 vs Ktr FC” value (A2C12) was -4.92 and the “Sfrp1 (secreted frizzled-related protein 1) regulated gene, Si162 vs Ktr FC” value (A2C12) was 1.12. The “Spp1 (secreted phosphoprotein 1) regulated gene, Si162 vs Ktr FC” value (A2C12) was 1.21, the “Srf (serum response factor) regulated gene, Si162 vs Ktr FC” value (A2C12) was -4.68 and the “Tgfb1i1 (transforming growth factor beta 1 induced transcript 1) regulated gene, Si162 vs Ktr FC” value (A2C12) was -4.59. The “Tgfb3 (transforming growth factor, beta 3) regulated gene, Si162 vs Ktr FC” value (A2C12) was -4.49, the “Tlr4 (toll-like receptor 4) regulated gene, Si162 vs Ktr FC” value (A2C12) was 1.09 and the “Tnc (tenascin C) regulated gene, Si162 vs Ktr FC” value (A2C12) was -5.20. The “Tp53 (tumor protein p53) regulated gene, Si162 vs Ktr FC” value (A2C12) was -4.50, the “Zyx (zyxin) regulated gene, Si162 vs Ktr FC” value (A2C12) was -5.47 and the “Significantly regulated genes, total (number)” value (A2C12; IC50 concentration, 96 h) was over 500. The “Significantly differentially regulated genes, downregulated (number)” value (A2C12; [1]) was 212, the “Significantly differentially regulated genes, upregulated (number)” value (A2C12; [1]) was 357 and the “Actg2 (actin, gamma 2, smooth muscle, enteric) regulated gene, Si162 vs Ktr FC” value (GammaA3) was -4.78. For the same compound, the “Bcl2l11 (BCL2-like 11 (apoptosis facilitator) (Bim)) regulated gene, Si162 vs Ktr FC” value (GammaA3) was 1.33, the “Birc5 (baculoviral IAP repeat-containing 5) regulated gene, Si162 vs Ktr FC” value (GammaA3) was -3.04 and the “Capn5 (calpain 5) regulated gene, Si162 vs Ktr FC” value (GammaA3) was 1.96. For the same compound, the “Casp6 (caspase 6, apoptosis-related cysteine peptidase) regulated gene, Si162 vs Ktr FC” value (GammaA3) was 1.07, the “Ccna2 (cyclin A2) regulated gene, Si162 vs Ktr FC” value (GammaA3) was -2.93 and the “Ccnb2 (cyclin B2) regulated gene, Si162 vs Ktr FC” value (GammaA3) was -2.44. The “Cdc2 (cell division cycle 2 (Cdk1)) regulated gene, Si162 vs Ktr FC” value (GammaA3) was -2.12, the “Cdkn1a (cyclin-dependent kinase inhibitor 1A (p21Cip1)) regulated gene, Si162 vs Ktr FC” value (GammaA3) was 1.27 and the “Cdkn2b (cyclin-dependent kinase inhibitor 2B (p15)) regulated gene, Si162 vs Ktr FC” value (GammaA3) was 1.13. The “Cdkn3 (cyclin-dependent kinase inhibitor 3) regulated gene, Si162 vs Ktr FC” value (GammaA3) was -2.80, the “Cenpa (centromere protein A) regulated gene, Si162 vs Ktr FC” value (GammaA3) was -2.62 and the “Crk (v-crk sarcoma virus CT10 oncogene homolog (avian)) regulated gene, Si162 vs Ktr FC” value (GammaA3) was -2.00. The “Ctnnb1 (catenin (cadherin-associated protein), beta 1, 88kDa) regulated gene, Si162 vs Ktr FC” value (GammaA3) was 1.94, the “Ctsb (cathepsin B) regulated gene, Si162 vs Ktr FC” value (GammaA3) was 1.20 and the “Cxcl12 (chemokine (C-X-C motif) ligand 12) regulated gene, Si162 vs Ktr FC” value (GammaA3) was -2.74. The “Dgka (diacylglycerol kinase, alpha 80kDa) regulated gene, Si162 vs Ktr FC” value (GammaA3) was 2.90, the “Fas (Fas (TNF receptor superfamily, member 6)) regulated gene, Si162 vs Ktr FC” value (GammaA3) was 1.40 and the “Gadd45a (growth arrest and DNA-damage-inducible, alpha) regulated gene, Si162 vs Ktr FC” value (GammaA3) was 2.78. For the same compound, the “Grb10 (growth factor receptor-bound protein 10) regulated gene, Si162 vs Ktr FC” value (GammaA3) was 3.65, the “Gsk3b (glycogen synthase kinase 3 beta) regulated gene, Si162 vs Ktr FC” value (GammaA3) was 1.12 and the “Itga6 (integrin, alpha 6) regulated gene, Si162 vs Ktr FC” value (GammaA3) was 4.04. For the same compound, the “Jakmip3 (janus kinase and microtubule interacting protein 3) regulated gene, Si162 vs Ktr FC” value (GammaA3) was 4.07, the “Lrdd (leucine-rich repeats and death domain containing (Pidd)) regulated gene, Si162 vs Ktr FC” value (GammaA3) was 1.03 and the “Mdm2 (Mdm2 p53 binding protein homolog (mouse)) regulated gene, Si162 vs Ktr FC” value (GammaA3) was 2.15. The “Mmp3 (matrix metallopeptidase 3 (stromelysin 1, progelatinase)) regulated gene, Si162 vs Ktr FC” value (GammaA3) was 2.73, the “Mmp13 (matrix metallopeptidase 13 (collagenase 3)) regulated gene, Si162 vs Ktr FC” value (GammaA3) was 2.98 and the “Nfib (nuclear factor I/B) regulated gene, Si162 vs Ktr FC” value (GammaA3) was -1.23. The “Notch3 (Notch homolog 3 (Drosophila)) regulated gene, Si162 vs Ktr FC” value (GammaA3) was 2.78, the “Ogn (osteoglycin) regulated gene, Si162 vs Ktr FC” value (GammaA3) was -5.01 and the “Perp (PERP, TP53 apoptosis effector) regulated gene, Si162 vs Ktr FC” value (GammaA3) was 6.09. The “Pik3ca (phosphoinositide-3-kinase, catalytic, alpha polypeptide) regulated gene, Si162 vs Ktr FC” value (GammaA3) was 1.27, the “Plcg2 (phospholipase C, gamma 2) regulated gene, Si162 vs Ktr FC” value (GammaA3) was 1.36 and the “Plk1 (polo-like kinase 1 (Drosophila)) regulated gene, Si162 vs Ktr FC” value (GammaA3) was -3.17. For the same compound, the “Pmaip1 (phorbol-12-myristate-13-acetate-induced protein 1 (Noxa)) regulated gene, Si162 vs Ktr FC” value (GammaA3) was 1.94, the “Ptk2 (PTK2 protein tyrosine kinase 2 (FAK)) regulated gene, Si162 vs Ktr FC” value (GammaA3) was 1.99 and the “Rock1 (Rho-associated, coiled-coil containing protein kinase 1) regulated gene, Si162 vs Ktr FC” value (GammaA3) was 1.14. The “Spp1 (secreted phosphoprotein 1) regulated gene, Si162 vs Ktr FC” value (GammaA3) was 1.01.
